Measurements: patent publication US6063803A, “Octahydropyrrolo-[3,4-c]carbazoles useful as analgesic agents” (Ortho-McNeil Pharmaceutical, Inc., priority 1999, dated 2000)
Structures can show the parent of a compound that is named as a salt. Where two headings read alike, the source gives them in different places.

Experiments:
[1] = mouse acetylcholine bromide-induced abdominal constriction assay; assay type: in vivo, mice (Male, Cr1:CD-1); details: Mus musculus; for responders at 30 mg/kg / % of mice protected from abdominal constriction (non-responders) at 30 mg/kg: 0.5 h, acetylcholine bromide 5.5 mg/kg i.p. 30 min later
Experimental: The analgesic activity of compounds of Formula I were determined in the following in vivo assay. The procedure was run essentially as described by H. Collier et al. in B. J. Pharmacol. Chemother., 32: 295-310, 1968, with minor modifications. Mice (Male, Cr1:CD-1, Charles River Laboratories) were used in the following example. The test drugs or appropriate vehicle were administered orally (10 mL/kg, p.o.) or subcutaneously (10 mL/kg, s.c.) and 30 minutes later the animal received an intraperitoneal (i.p.) injection of 5.5 mg/kg acetylcholine bromide. The mice were then placed in glass bell jars and observed for a ten minute observation period for the occurrence of an abdominal constriction response (defined as a wave of constriction and elongation passing caudally along the abdominal wall, accompanied by a twisting of the trunk and followed by extension of the hind limbs). The percent inhibition of this response to antinociceptive stimulus (equated to % analgesia) was calculated as follows: The % inhibition of response, i.e., % analgesia is equal to the number of non-responding drug-treated animals×100 divided by the number of animals in the group.
The ED50 values and their 95% fiducial limits were determined by a computer assisted probit analysis. […] This effect lasted for 4-5 hours.
Table A lists the % inhibition for some compounds of the invention. Unless otherwise indicated the compounds were administered s.c. at 30 mg/kg. [drawing 63]

[2] = mouse hot plate assay (48° C.); assay type: in vivo, mice; details: Mus musculus, po, 0.5 h
Experimental: The test was essentially described by N. Eddy and D. Leimbach, Synthetic Analgesics II Dithienylbutenyl- and Dithienylbutylamines, J. Pharmacol. Exp. Ther., 107, 385-93 (1953) and J. O'Callaghan and S. Holtzman, Qualification of the Analgesic Activity of Narcotic Antagonists by a Modified Hot-Plate Procedure, J. Pharmacol. Exp. Ther, 192, 497-505 (1975), with minor modifications. Mice were placed on a heated surface (48° C.) and the time interval (seconds) between placement and a shaking, licking, or tucking of the hind paw was recorded as the predrug latency response. This procedure was repeated 30 minutes after the administration of a test compound (p.o., 10 mL/kg). The percent maximum possible antinociceptive effect (% MPE) was determined using the following formula: % MPE=100×(Test latency-Predrug latency)/(Cutoff time-Predrug Latency), using the predrug latency of each animal and cutoff time established to prevent injury to the animal. The cutoff time was 90s.
The ED50 value and 95% confidence intervals were determined using a computer-assisted linear regression analysis of the dose-response curve, including an analysis of variance test for linearity. Oral dosing of Compound 58 produced an analgesic effect after 15 min. This effect lasted for one hour.

[3] = rat air-induced writhing (abdominal constriction) assay; assay type: in vivo, rats; details: Rattus norvegicus, po
Experimental: The analgesic activity was determined in another model using rats as the test animal. The procedure was essentially described by P. VonVoightlander et al. in Air-induced Writhing, a Rapid Broad Spectrum Assay for Analgesics, Drug Dev. Res., 2, 577-81, (1982). The test compound or vehicle was administered p.o. (2 mL/kg) and after 30 min, the animals received an i.p. injection of air (10 mL). The animals were placed into individual observation chambers and observed for 30 min for the occurrence of abdominal constriction as defined above. The percent inhibition of this response was calculated as follows. The % inhibition of response, i.e., % analgesia is equal to the number nonresponding drug-treated animals×100 divided by the number of animals in the group. […] This effect lasted for 2-3 hours.

[4] = 30 mg/kg po, read-out: % inhibition @ 30 mg/kg (po)
[5] = sc, 30 mg/kg s.c., read-out: % inhibition @ 30 mg/kg

For `C[C@@H]1C[C@H]2CN(C)C[C@H]2c2c1[nH]c1ccccc21` (relative stereo) [Compound 88, (±)-3aα,5α,10cα-4,5,6,10c-Octahydro-2,5-dimethylpyrrolo[3,4-c]carbazole], the responders at 30 mg/kg [1, 4] was 93%.

Compound `CN1C[C@@H]2CCc3[nH]c4c(Cl)cccc4c3[C@@H]2C1` (relative stereo) [Compound 35] has a responders at 30 mg/kg [1, 5] of 93%.

Work on `CC(C)c1ccc2[nH]c3c(c2c1)[C@@H]1CN(C)C[C@@H]1CC3` (relative stereo) [Compound 39] yielded a % of mice protected from abdominal constriction (non-responders) at 30 mg/kg [1, 5] of 27%.

Compound `CN1C[C@@H]2CCc3[nH]c4cc(Cl)ccc4c3[C@@H]2C1` (relative stereo) [Compound 37] has a responders at 30 mg/kg [1, 5] of 100%.

In the case of `C[C@H]1C[C@H]2CN(C)C[C@H]2c2c1[nH]c1ccccc21` (relative stereo) [Compound 89, (±)-3aα,5β,10cα-4,5,6,10c-Octahydro-2,5-dimethylpyrrolo[3,4-c]carbazole], the responders at 30 mg/kg [1, 5] is reported as 100%.

For `CN1C[C@@H]2CCc3[nH]c4cc(F)ccc4c3[C@@H]2C1` (relative stereo) [Compound 30, (±)-3aα,10cα-4,5,6,10c-Octahydro-8-fluoro-2-methylpyrrolo[3,4-c]carbazole Fumarate [1:1.5]], the responders at 30 mg/kg [1, 4] was 100%.

With `CN1C[C@@H]2CCc3[nH]c4ccc(C#N)cc4c3[C@@H]2C1` (relative stereo) [Compound 73, (±)-3aα,10cα-1,2,3,3a,4,5,6,10c-Octahydro-9-cyano-2-methylpyrrolo-[3,4-c]carbazole] the % of mice protected from abdominal constriction (non-responders) at 30 mg/kg [1, 5] was 100%.

For `CN1C[C@@H]2CCc3[nH]c4cccc(F)c4c3[C@@H]2C1` (relative stereo) [Compound 44], the responders at 30 mg/kg [1, 4] was 100%.

For `CN1CC2CCc3[nH]c4ccccc4c3C2C1` (single isomer, unassigned) [Compound 57], the responders at 30 mg/kg [1, 5] was 100%.

For `c1ccc2c3c([nH]c2c1)CC[C@H]1CNC[C@@H]31` (relative stereo) [Compound 64, (±)-3aα,10cα-4,5,6,10c-Octahydropyrrolo[3,4-c]carbazole], the responders at 30 mg/kg [1, 5] was 80%.

Compound `CC(C)N1C[C@@H]2CCc3[nH]c4ccccc4c3[C@@H]2C1` (relative stereo) [Compound 65, (±)-3aα,10cα-4,5,6,10c-Octahydro-2-(1-methylethyl)pyrrolo[3,4-c]carbazole Hydrochloride Hydrate [1.0:1.0:0.13]] has a % of mice protected from abdominal constriction (non-responders) at 30 mg/kg [1, 4] of 93%.

Work on `COc1cccc(C2(O)CCCCC2CN(C)C)c1` (stereo not shown) [tramadol, reference compound] yielded an ED50 [2] of 28.3 mg/kg, an ED50 [1] of 5.4 mg/kg and an ED50 [3] of 1.7 mg/kg.

For `Cc1cccc2c3c([nH]c12)CC[C@H]1CN(C)C[C@@H]31` (relative stereo) [Compound 40, (±)-3aα,10cα,-1,2,3,3a,4,5,6,10c-octahydro-2,7-dimethylpyrrolo[3,4-c]carbazole], the responders at 30 mg/kg [1, 4] was 87%.

`CN1C[C@@H]2CCc3[nH]c4ccc(Br)cc4c3[C@@H]2C1` (relative stereo) [Compound 36] showed a responders at 30 mg/kg [1, 5] of 100%.

In the case of `Cc1cc(C)c2c3c([nH]c2c1)CC[C@H]1CN(C)C[C@@H]31` (relative stereo) [Compound 49], the % of mice protected from abdominal constriction (non-responders) at 30 mg/kg [1, 5] is reported as 100%.

For `CN1C[C@@H]2CCc3[nH]c4ccccc4c3[C@H]2C1` (relative stereo) [Compound 72, (±)-3aα,10cβ-1,2,3,3a,4,5,6,10c-Octahydro-2-methylpyrrolo-[3,4-c]carbazole Fumarate [1.0:0.55]], the responders at 30 mg/kg [1, 4] was 100%.

With `COc1cccc2c3c([nH]c12)CC[C@H]1CN(C)C[C@@H]31` (relative stereo) [Compound 32] the % of mice protected from abdominal constriction (non-responders) at 30 mg/kg [1, 5] was 100%.

Compound `CN1C[C@@H]2CCc3[nH]c4cccc(C(F)(F)F)c4c3[C@@H]2C1` (relative stereo) [Compound 42] has a % of mice protected from abdominal constriction (non-responders) at 30 mg/kg [1, 5] of 60%.

For `CN1C[C@@H]2CCc3[nH]c4c(Cl)ccc(Cl)c4c3[C@@H]2C1` (relative stereo) [Compound 33], the % of mice protected from abdominal constriction (non-responders) at 30 mg/kg [1, 5] was 33%.

Compound `CN1C[C@@H]2CCc3[nH]c4ccc(F)cc4c3[C@@H]2C1` (relative stereo) [Compound 31] has a responders at 30 mg/kg [1, 5] of 93%.

In the case of `CN1C[C@@H]2C(c3ccccc3)Cc3[nH]c4ccccc4c3[C@@H]2C1` (mixture of isomers) [Compound 75, (±)-3aα,10cα-1,2,3,3a,4,5,6,10c-Octahydro-2-methyl-4-phenylpyrrolo-[3,4-c]carbazole Fumarate [1.0:0.55]], the % of mice protected from abdominal constriction (non-responders) at 30 mg/kg [1, 5] is reported as 100%.

Work on `CN1C[C@@H]2CCc3[nH]c4c(C(F)(F)F)cccc4c3[C@@H]2C1` (relative stereo) [Compound 48] yielded a % of mice protected from abdominal constriction (non-responders) at 30 mg/kg [1, 5] of 100%.

For `CC(C)(C)N1C[C@@H]2CCc3[nH]c4ccccc4c3[C@@H]2C1` (relative stereo) [Compound 53], the % of mice protected from abdominal constriction (non-responders) at 30 mg/kg [1, 5] was 100%.

`C=CCN1C[C@@H]2CCc3[nH]c4ccccc4c3[C@@H]2C1` (relative stereo) [Compound 66, (±)-3aα,10cα-1,2,3,3a,4,5,6,10c-Octahydro-2-(propenyl)pyrrolo[3,4-c]carbazole Fumarate [1:0.6]] showed a % of mice protected from abdominal constriction (non-responders) at 30 mg/kg [1, 5] of 100%.

`CN1C[C@@H]2CCc3[nH]c4cccc(Cl)c4c3[C@@H]2C1` (relative stereo) [Compound 38] gave a responders at 30 mg/kg [1, 4] of 87%.

`CN1C[C@@H]2CCc3[nH]c4c(F)cccc4c3[C@@H]2C1` (relative stereo) [Compound 47] showed a responders at 30 mg/kg [1, 4] of 93%.

`Cc1ccc2c3c([nH]c2c1C)CC[C@H]1CN(C)C[C@@H]31` (relative stereo) [Compound 34] showed a % of mice protected from abdominal constriction (non-responders) at 30 mg/kg [1, 5] of 100%.

In the case of `CN1C[C@@H]2CCc3[nH]c4c(Br)cccc4c3[C@@H]2C1` (relative stereo) [Compound 45], the responders at 30 mg/kg [1, 5] is reported as 73%.

For `CN1C[C@@H]2CCc3[nH]c4cc(C(F)(F)F)ccc4c3[C@@H]2C1` (relative stereo) [Compound 41], the % of mice protected from abdominal constriction (non-responders) at 30 mg/kg [1, 5] was 100%.

With `C[C@@H]1[C@@H]2c3c([nH]c4ccccc34)CC[C@@H]2CN1C` (relative stereo) [Compound 69, (±)-1α,3aβ,10cβ-1,2,3,3a,4,5,6,10c-Octahydro-1,2-dimethylpyrrolo-[3,4-c]carbazole] the responders at 30 mg/kg [1, 5] was 100%.

`CCc1cccc2c3c([nH]c12)CC[C@H]1CN(C)C[C@@H]31` (relative stereo) [Compound 46] gave a % of mice protected from abdominal constriction (non-responders) at 30 mg/kg [1, 5] of 100%.

In the case of `CN1C[C@@H]2CCc3[nH]c4cc(F)cc(F)c4c3[C@@H]2C1` (relative stereo) [Compound 50], the % of mice protected from abdominal constriction (non-responders) at 30 mg/kg [1, 5] is reported as 100%.
